In US10246456B2, “IRAK4 inhibiting agents” (BIOGEN MA INC., priority 2014, dated 2019):

Biological target: IRAK4 (Homo sapiens (Human), UniProt Q9NWZ3)
Experiment: IRAK-4 AlphaScreen biochemical kinase assay
Conditions: 1 nM IRAK4, 1 mM ATP, 3.5 h at RT
How it was run: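 AlphaScreen read-out: streptavidin beads bind the biotinylated peptide and protein A beads bind the anti-phosphothreonine antibody, so energy transfer reports phosphorylation of the peptide. The kinase is human IRAK-4.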

IRAK4, sequence (Q9NWZ3 whole entry, species assumed): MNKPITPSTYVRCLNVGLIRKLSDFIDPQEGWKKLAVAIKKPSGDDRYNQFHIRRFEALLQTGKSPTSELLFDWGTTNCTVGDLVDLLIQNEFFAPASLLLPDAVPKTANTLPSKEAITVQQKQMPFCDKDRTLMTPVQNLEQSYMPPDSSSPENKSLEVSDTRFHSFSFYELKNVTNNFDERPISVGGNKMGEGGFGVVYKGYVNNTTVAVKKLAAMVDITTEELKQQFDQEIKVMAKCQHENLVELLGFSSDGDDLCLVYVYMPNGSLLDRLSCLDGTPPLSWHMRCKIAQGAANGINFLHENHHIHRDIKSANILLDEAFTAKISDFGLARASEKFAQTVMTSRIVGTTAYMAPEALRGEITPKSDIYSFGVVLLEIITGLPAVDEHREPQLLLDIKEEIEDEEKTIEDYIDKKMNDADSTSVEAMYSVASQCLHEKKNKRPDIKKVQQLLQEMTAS

SMILES | IC50
C[C@H](N)c1cccc(-c2cc(-c3ccn(C(F)F)n3)c3cnn(-c4cccc(CO)n4)c3c2)n1 [Example 386, (S)-(6-(6-(6-(1-aminoethyl)pyridin-2-yl)-4-(1-(difluoromethyl)-1H-pyrazol-3-yl)-1H-indazol-1-yl)pyridin-2-yl)methanol] | < 100 nM
C[C@H](N)c1cccc(-c2cc(-c3ccnn3C(F)F)c3cnn(-c4cccc(CO)n4)c3c2)n1 [Example 387, (S)-(6-(6-(6-(1-aminoethyl)pyridin-2-yl)-4-(1-(difluoromethyl)-1H-pyrazol-5-yl)-1H-indazol-1-yl)pyridin-2-yl)methanol] | < 100 nM
C[C@H](N)c1cccc(-c2cc(-c3cnccn3)c3cnn(-c4cccc(CO)n4)c3c2)n1 [Example 388, (S)-(6-(6-(6-(1-aminoethyl)pyridin-2-yl)-4-(pyrazin-2-yl)-1H-indazol-1-yl)pyridin-2-yl)methanol] | < 100 nM
CCC[C@H](N)c1cccc(-c2cc(-c3cc(C)n(C)n3)c3cnn(-c4cccc(CO)n4)c3c2)n1 [Example 389, (S)-(6-(6-(6-(1-aminobutyl)pyridin-2-yl)-4-(1,5-dimethyl-1H-pyrazol-3-yl)-1H-indazol-1-yl)pyridin-2-yl)methanol] | < 100 nM
CC[C@@H](N)c1cccc(-c2cc(-c3cc(C)n(C)n3)c3cnn(-c4cccc(CO)n4)c3c2)n1 [Example 390, (R)-(6-(6-(6-(1-aminopropyl)pyridin-2-yl)-4-(1,5-dimethyl-1H-pyrazol-3-yl)-1H-indazol-1-yl)pyridin-2-yl)methanol] | < 100 nM
Cc1cc(-c2cc(-c3cccc([C@@H](N)CF)n3)cc3c2cnn3-c2cccc(CO)n2)nn1C [Example 391, (R)-(6-(6-(6-(1-amino-2-fluoroethyl)pyridin-2-yl)-4-(1,5-dimethyl-1H-pyrazol-3-yl)-1H-indazol-1-yl)pyridin-2-yl)methanol] | < 100 nM
Cc1cc(-c2cc(-c3cccc([C@@H](N)CCCO)n3)cc3c2cnn3-c2cccc(CO)n2)nn1C [Example 392, (S)-4-amino-4-(6-(4-(1,5-dimethyl-1H-pyrazol-3-yl)-1-(6-(hydroxymethyl)pyridin-2-yl)-1H-indazol-6-yl)pyridin-2-yl)butan-1-ol] | < 100 nM
C[C@H](N)c1cccc(-c2cc(-c3ccncn3)c3cnn(-c4cccc(CO)n4)c3c2)n1 [Example 393, (S)-(6-(6-(6-(1-aminoethyl)pyridin-2-yl)-4-(pyrimidin-4-yl)-1H-indazol-1-yl)pyridin-2-yl)methanol] | < 100 nM
C[C@H](N)c1cccc(-c2cc(-c3cccnn3)c3cnn(-c4cccc(CO)n4)c3c2)n1 [Example 394, (S)-(6-(6-(6-(1-aminoethyl)pyridin-2-yl)-4-(pyridazin-3-yl)-1H-indazol-1-yl)pyridin-2-yl)methanol] | < 100 nM
Cn1ccc(-c2cc(-c3cccc([C@@H](N)CCCO)n3)cc3c2cnn3-c2cccc(CO)n2)n1 [Example 395, (S)-4-amino-4-(6-(1-(6-(hydroxymethyl)pyridin-2-yl)-4-(1-methyl-1H-pyrazol-3-yl)-1H-indazol-6-yl)pyridin-2-yl)butan-1-ol] | < 100 nM
CCOc1cc(-c2cccc([C@@H](N)CCCO)n2)cc2c1cnn2-c1cccc(CO)n1 [Example 410, (S)-4-amino-4-(6-(4-ethoxy-1-(6-(hydroxymethyl)pyridin-2-yl)-1H-indazol-6-yl)pyridin-2-yl)butan-1-ol] | < 100 nM
[2H][C@](N)(CCC)c1cccc(-c2ccc3cnn(-c4cccc(CO)n4)c3c2)n1 [Example 419, deutero (S)-(6-(6-(6-(1-aminobutyl)pyridin-2-yl)-1H-indazol-1-yl)pyridin-2-yl)methanol] | < 100 nM
CCCC1(N)CCCc2ccc(-c3ccc4cnn(-c5cccc(CO)n5)c4c3)nc21 (stereo not drawn) [Example 421, (6-(6-(8-amino-8-propyl-5,6,7,8-tetrahydroquinolin-2-yl)-1H-indazol-1-yl)pyridin-2-yl)methanol] | < 100 nM
CCC[C@H](N)c1cccc(-c2cc(C3CCN(C)CC3)c3cnn(-c4cccc(CO)n4)c3c2)n1 [Example 424, (S)-(6-(6-(6-(1-aminobutyl)pyridin-2-yl)-4-(1-methylpiperidin-4-yl)-1H-indazol-1-yl)pyridin-2-yl)methanol] | < 100 nM
CCC[C@H](N)c1cccc(-c2cc(OCCO)c3cnn(-c4cccc(CO)n4)c3c2)n1 [Example 426, (S)-2-((6-(6-(1-aminobutyl)pyridin-2-yl)-1-(6-(hydroxymethyl)pyridin-2-yl)-1H-indazol-4-yl)oxy)ethanol] | < 100 nM
COCCOc1cc(-c2cccc([C@@H](N)CCCO)n2)cc2c1cnn2-c1cncc(CO)n1 [Example 428, (S)-4-amino-4-(6-(1-(6-(hydroxymethyl)pyrazin-2-yl)-4-(2-methoxyethoxy)-1H-indazol-6-yl)pyridin-2-yl)butan-1-ol] | < 100 nM
COCCOc1cc(-c2cccc([C@@H](N)C(F)CCO)n2)cc2c1cnn2-c1cccc(CO)n1 (stereo partly drawn) [Example 430, (4R)-4-amino-3-fluoro-4-(6-(1-(6-(hydroxymethyl)pyridin-2-yl)-4-(2-methoxyethoxy)-1H-indazol-6-yl)pyridin-2-yl)butan-1-ol] | < 100 nM
COCCOc1cc(-c2cccc([C@H](N)C(F)CCO)n2)cc2c1cnn2-c1cccc(CO)n1 (stereo partly drawn) [Example 431, (4S)-4-amino-3-fluoro-4-(6-(1-(6-(hydroxymethyl)pyridin-2-yl)-4-(2-methoxyethoxy)-1H-indazol-6-yl)pyridin-2-yl)butan-1-ol] | 100 to 1000 nM
COCCOc1cc(-c2cccc([C@@H](N)C(C)F)n2)cc2c1cnn2-c1cccc(CO)n1 (stereo partly drawn) [Example 433, (6-(6-(6-((1R)-1-amino-2-fluoropropyl)pyridin-2-yl)-4-(2-methoxyethoxy)-1H-indazol-1-yl)pyridin-2-yl)methanol] | < 100 nM
CCOc1cc(-c2cccc([C@@H](N)c3ccccc3)n2)cc2c1cnn2-c1cccc(CO)n1 [Example 440, (S)-(6-(6-(6-(amino(phenyl)methyl)pyridin-2-yl)-4-ethoxy-1H-indazol-1-yl)pyridin-2-yl)methanol] | < 100 nM
CC#CC[C@H](N)c1cccc(-c2cc(OCC)c3cnn(-c4cccc(CO)n4)c3c2)n1 [Example 441, (S)-(6-(6-(6-(1-aminopent-3-yn-1-yl)pyridin-2-yl)-4-ethoxy-1H-indazol-1-yl)pyridin-2-yl)methanol] | < 100 nM

Results, then the compound that gave them:

IC50 | SMILES
< 100 nM | N[C@@H](CCCO)c1cccc(-c2ccc3cnn(-c4cccc(CO)n4)c3c2)n1 [Example 396, (S)-4-amino-4-(6-(1-(6-(hydroxymethyl)pyridin-2-yl)-1H-indazol-6-yl)pyridin-2-yl)butan-1-ol]
100 to 1000 nM | CCC[C@H](N)c1cccc(-c2ccc3cnn(-c4ccnc(CO)c4)c3c2)n1 [Example 400, (S)-(4-(6-(6-(1-aminobutyl)pyridin-2-yl)-1H-indazol-1-yl)pyridin-2-yl)methanol]
< 100 nM | CCC[C@H](N)c1cccc(-c2ccc3cnn(-c4ccnc(CO)n4)c3c2)n1 [Example 401, (S)-(4-(6-(6-(1-aminobutyl)pyridin-2-yl)-1H-indazol-1-yl)pyrimidin-2-yl)methanol]
< 100 nM | CCC[C@H](N)c1cccc(-c2ccc3cnn(-c4cccc(CO)c4)c3c2)n1 [Example 402, (S)-(3-(6-(6-(1-aminobutyl)pyridin-2-yl)-1H-indazol-1-yl)phenyl)methanol]
< 100 nM | CCC[C@H](N)c1cccc(-c2ccc3cnn(-c4nccc(CO)n4)c3c2)n1 [Example 403, (S)-(2-(6-(6-(1-aminobutyl)pyridin-2-yl)-1H-indazol-1-yl)pyrimidin-4-yl)methanol]
100 to 1000 nM | CCC[C@H](N)c1ccnc(-c2ccc3cnn(-c4cccc(CO)n4)c3c2)c1 [Example 404, (S)-(6-(6-(4-(1-aminobutyl)pyridin-2-yl)-1H-indazol-1-yl)pyridin-2-yl)methanol]
< 100 nM | CCC[C@H](N)c1nccc(-c2ccc3cnn(-c4cccc(CO)n4)c3c2)n1 [Example 405, (S)-(6-(6-(2-(1-aminobutyl)pyrimidin-4-yl)-1H-indazol-1-yl)pyridin-2-yl)methanol]
< 100 nM | CCC[C@@H](N)c1nccc(-c2ccc3cnn(-c4cccc(CO)n4)c3c2)n1 [Example 406, (R)-(6-(6-(2-(1-aminobutyl)pyrimidin-4-yl)-1H-indazol-1-yl)pyridin-2-yl)methanol]
< 100 nM | CCC[C@H](N)c1cncc(-c2ccc3cnn(-c4cccc(CO)n4)c3c2)n1 [Example 407, (S)-(6-(6-(6-(1-aminobutyl)pyrazin-2-yl)-1H-indazol-1-yl)pyridin-2-yl)methanol]
< 100 nM | CCC[C@@H](N)c1cncc(-c2ccc3cnn(-c4cccc(CO)n4)c3c2)n1 [Example 408, (R)-(6-(6-(6-(1-aminobutyl)pyrazin-2-yl)-1H-indazol-1-yl)pyridin-2-yl)methanol]
< 100 nM | COc1cc(-c2cccc([C@@H](N)CCCO)n2)cc2c1cnn2-c1cccc(CO)n1 [Example 409, (S)-4-amino-4-(6-(1-(6-(hydroxymethyl)pyridin-2-yl)-4-methoxy-1H-indazol-6-yl)pyridin-2-yl)butan-1-ol]
1000 to 10000 nM | C[C@@H](N)c1ccnc(-c2ccc3cnn(-c4cccc(CO)n4)c3c2)n1 [Example 412, (R)-(6-(6-(4-(1-aminoethyl)pyrimidin-2-yl)-1H-indazol-1-yl)pyridin-2-yl)methanol]
< 100 nM | CC1(N)CCCc2ccc(-c3ccc4cnn(-c5cccc(CO)n5)c4c3)nc21 (stereo not drawn) [Example 420, (6-(6-(8-amino-8-methyl-5,6,7,8-tetrahydroquinolin-2-yl)-1H-indazol-1-yl)pyridin-2-yl)methanol]
< 100 nM | C=CC[C@H](N)c1cccc(-c2ccc3cnn(-c4cccc(CO)n4)c3c2)n1 [Example 435, (S)-(6-(6-(6-(1-aminobut-3-en-1-yl)pyridin-2-yl)-1H-indazol-1-yl)pyridin-2-yl)methanol]
< 100 nM | CC(=O)C[C@H](N)c1cccc(-c2ccc3cnn(-c4cccc(CO)n4)c3c2)n1 [Example 449, (S)-4-amino-4-(6-(1-(6-(hydroxymethyl)pyridin-2-yl)-1H-indazol-6-yl)pyridin-2-yl)butan-2-one]
